Measured values: publication PMC9655037, “Alternation of Organ-Specific Exposure in LPS-Induced Pneumonia Mice after the Inhalation of Tetrandrine Is Governed by Metabolizing Enzyme Suppression and Lysosomal Trapping” (International Journal of Molecular Sciences, 2022)

Experiment: Tissue distribution of TET after a single i.t. administration in normal and LPS-treated mice
Details: BALB/c, mouse, 15 mg/kg, 15 mg/kg i.t.; for Kp: other: intratracheal (i.t.), Kp (AUC in tissue divided by AUC in blood); for AUC(0-inf) / Cmax / MRT / Tmax / half-life / AUC(0-t): inhaled or intranasal
Experimental: The different tissue distribution characteristics of TET in normal and pneumonia model mice via i.t. delivery were investigated. Thirty BALB/c mice were randomly divided into ten groups (n = 3 for each group). Five groups of mice were intratracheally injected with 15 mg/kg TET (dissolved in 22.5 mg/mL aspartic acid solution) as control groups, and the other five groups received i.t. administration of 15 mg/kg TET 6 h after i.t. injection of 50 μL LPS (5 mg/mL) as model groups. One control group and one model group were sacrificed simultaneously at the set time points of 2, 4, 8, 24, and 144 h after the administration of TET. After a cardiac puncture to obtain blood samples, tissue samples including heart, liver, spleen, lung, kidney, stomach, intestine, and brain were immediately harvested and all the tissues were thoroughly rinsed in ice physiological saline. All the tissue samples were weighed and stored with blood samples at −40 °C for LC-MS/MS analysis.
Pharmacokinetic parameters including t1/2, AUC(0-t), AUC(0-∞), and MRT were calculated using WinNonlin 7.0 (Pharsight, CA) by the non-compartmental model. Initial plasma concentration post i.v. (C0-i.v.) was extrapolated from the first three points of the logarithmic plasma concentration. The area under the blood concentration–time curve from t = 0 to infinity (AUCinf) was estimated using the linear trapezoidal rule. Blood clearance (CL) was calculated as the i.v. dose divided by AUCinf. Apparent steady-state distribution volume (Vss) was determined by the clearance multiplied by mean residence time. The distribution volume in the elimination phase (Vz) was determined by the clearance divided by the first-order rate constant of the terminal elimination phase (λz). The tissue partition ratio (Kp) of each tissue was calculated as Equation (1). (1) Kp=AUC(0−∞,tissue)/AUC(0−∞,plasma)

In the case of `COc1ccc2cc1Oc1ccc(cc1)C[C@H]1c3cc(c(OC)cc3CCN1C)Oc1c(OC)c(OC)cc3c1[C@H](C2)N(C)CC3` [TET, Tetrandrine], the Kp (adipose / blood, LPS-treated mice, adipose) is reported as 2.6, the Kp (adipose / blood, normal mice, adipose) is reported as 2.4 and the AUC(0-inf) (adipose, LPS-treated mice) is reported as 816 ± 429 µg·h/mL. It also gave an AUC(0-inf) (adipose, normal mice) of 501 ± 88.3 µg·h/mL, a Cmax (adipose, LPS-treated mice) of 5920 ± 1410 ng/mL and a Cmax (adipose, normal mice) of 7380 ± 1790 ng/mL. It also gave an MRT (adipose, LPS-treated mice) of 102 ± 57.9 h, an MRT (adipose, normal mice) of 67.7 ± 37.1 h and a Tmax (adipose, LPS-treated mice) of 18.7 ± 9.24 h. It also gave a Tmax (adipose, normal mice) of 5.33 ± 2.31 h, a half-life (adipose, t1/2, LPS-treated mice) of 75.2 ± 35.2 h and a half-life (adipose, t1/2, normal mice) of 54 ± 21.5 h. It also gave an AUC(0-inf) (blood, LPS-treated mice) of 326 ± 12.9 µg·h/mL, an AUC(0-inf) (blood, normal mice) of 249 ± 16.4 µg·h/mL and a Cmax (blood, LPS-treated mice) of 1940 ± 225 ng/mL. For the same compound, the Cmax (blood, normal mice) was 2670 ± 50 ng/mL, the MRT (blood, LPS-treated mice) was 133 ± 26.1 h and the MRT (blood, normal mice) was 111 ± 23.1 h. The Tmax (blood, LPS-treated mice) was 24 h, the Tmax (blood, normal mice) was 3.33 ± 1.15 h and the half-life (blood, t1/2, LPS-treated mice) was 95.5 ± 17.6 h. For the same compound, the half-life (blood, t1/2, normal mice) was 83.2 ± 15.4 h, the Kp (blood, LPS-treated mice, blood) was 1 and the Kp (blood, normal mice, blood) was 1. The Kp (brain / blood, LPS-treated mice, brain) was 0.6, the Kp (brain / blood, normal mice, brain) was 1 and the AUC(0-inf) (brain, LPS-treated mice) was 179 ± 38.4 µg·h/mL. It also gave an AUC(0-inf) (brain, normal mice) of 190 ± 51.4 µg·h/mL, a Cmax (brain, LPS-treated mice) of 6430 ± 3790 ng/mL and a Cmax (brain, normal mice) of 10400 ± 9530 ng/mL. For the same compound, the MRT (brain, LPS-treated mice) was 112 ± 35.4 h, the MRT (brain, normal mice) was 56.8 ± 26.5 h and the Tmax (brain, LPS-treated mice) was 5.33 ± 2.31 h. The Tmax (brain, normal mice) was 2 h, the half-life (brain, t1/2, LPS-treated mice) was 92.6 ± 27.2 h and the half-life (brain, t1/2, normal mice) was 51.6 ± 17.2 h. For the same compound, the Kp (heart / blood, LPS-treated mice, heart) was 4.3, the Kp (heart / blood, normal mice, heart) was 5.1 and the AUC(0-t) (heart, LPS-treated mice) was 940 ± 381 µg·h/mL. The AUC(0-t) (heart, normal mice) was 880 ± 22.2 µg·h/mL, the AUC(0-inf) (heart, LPS-treated mice) was 4090 ± 3400 µg·h/mL and the AUC(0-inf) (heart, normal mice) was 1410 ± 21.5 µg·h/mL. The Cmax (heart, LPS-treated mice) was 10800 ± 4010 ng/mL, the Cmax (heart, normal mice) was 14200 ± 3160 ng/mL and the MRT (heart, LPS-treated mice) was 643 ± 376 h. The MRT (heart, normal mice) was 137 ± 0.09 h, the Tmax (heart, LPS-treated mice) was 4 h and the Tmax (heart, normal mice) was 2.67 ± 1.15 h. The half-life (heart, t1/2, LPS-treated mice) was 449 ± 259 h, the half-life (heart, t1/2, normal mice) was 96.8 ± 6.46 h and the AUC(0-t) (in vivo, LPS-treated mice, adipose) was 566 ± 163 µg·h/mL. The AUC(0-t) (in vivo, LPS-treated mice, blood) was 219 ± 17.7 µg·h/mL, the AUC(0-t) (in vivo, LPS-treated mice, brain) was 129 ± 46.2 µg·h/mL and the AUC(0-t) (in vivo, LPS-treated mice, kidney) was 7940 ± 1170 µg·h/mL. For the same compound, the AUC(0-t) (in vivo, LPS-treated mice, liver) was 5890 ± 178 µg·h/mL, the AUC(0-t) (in vivo, LPS-treated mice, muscle) was 483 ± 89.5 µg·h/mL and the AUC(0-t) (in vivo, LPS-treated mice, spleen) was 9420 ± 942 µg·h/mL. For the same compound, the AUC(0-t) (in vivo, normal mice, adipose) was 421 ± 94.4 µg·h/mL, the AUC(0-t) (in vivo, normal mice, blood) was 175 ± 12.3 µg·h/mL and the AUC(0-t) (in vivo, normal mice, brain) was 168 ± 60.6 µg·h/mL. It also gave an AUC(0-t) (in vivo, normal mice, intestine) of 1460 ± 134 µg·h/mL, an AUC(0-t) (in vivo, normal mice, kidney) of 6510 ± 691 µg·h/mL and an AUC(0-t) (in vivo, normal mice, liver) of 4860 ± 334 µg·h/mL. It also gave an AUC(0-t) (in vivo, normal mice, lung) of 4310 ± 1000 µg·h/mL, an AUC(0-t) (in vivo, normal mice, muscle) of 359 ± 79.8 µg·h/mL and an AUC(0-t) (in vivo, normal mice, spleen) of 7940 ± 665 µg·h/mL. For the same compound, the AUC(0-t) (in vivo, normal mice, stomach) was 929 ± 163 µg·h/mL, the Kp (intestine / blood, normal mice, intestine) was 8.3 and the AUC(0-t) (intestine, LPS-treated mice) was 2390 ± 196 µg·h/mL. The AUC(0-inf) (intestine, LPS-treated mice) was 2590 ± 271 µg·h/mL, the AUC(0-inf) (intestine, normal mice) was 1630 ± 130 µg·h/mL and the Cmax (intestine, LPS-treated mice) was 76500 ± 10900 ng/mL. It also gave a Cmax (intestine, normal mice) of 46700 ± 25900 ng/mL, an MRT (intestine, LPS-treated mice) of 42.4 ± 6.38 h and an MRT (intestine, normal mice) of 50.5 ± 2.31 h. It also gave a Tmax (intestine, LPS-treated mice) of 2 h, a Tmax (intestine, normal mice) of 4 h and a half-life (intestine, t1/2, LPS-treated mice) of 41.7 ± 4.93 h. It also gave a half-life (intestine, t1/2, normal mice) of 44.7 ± 1.94 h, a Kp (intestine, LPS-treated mice, intestine) of 11 ± 1.35 and an AUC(0-inf) (kidney, LPS-treated mice) of 11000 µg·h/mL.
